Here are results for eight molecules from article PMC8802806, “Synthesis and Antitumor Activity of Erlotinib Derivatives Linked With 1,2,3-Triazole” (Frontiers in Pharmacology, 2022).

Read-outs that look alike come from different tables or passages of the source.

In one series the test system is HeLa cells. Nature of the series: Cell antiproliferative activity assay (CCK8). In kind it is cell-based, human. To be noted: Homo sapiens; for inhibition at 0.25 µM: 250 nM; for inhibition at 0.5 µM: 500 nM; for inhibition at 1 µM: 1000 nM; for inhibition at 2 µM: 2000 nM; for inhibition at 4 µM: 4000 nM; for inhibition at 8 µM: 8000 nM; for inhibition at 16 µM: 16000 nM. On the procedure: Cell antiproliferative activity was evaluated by the Cell Counting Kit-8 (CCK8, DOJINDO, Japan) assay. The cells were seeded at a density of 2,000 cells per well into 96-well microplate in 100 μl of growth medium. Cells were incubated at 37°C and 5% CO2 overnight. The next day, 100 μl per well of diluted inhibitor in growth medium was added with the final concentration from 0.1 nM to 100 μM. The cells were treated with DMSO as control. A series of dilutions are made in 0.1% DMSO in assay medium so that the final concentration of DMSO is 0.1% in all of treatments. Cells were incubated at 37°C and 5% CO2 for 48 h. Then, 10 μl of CCK8 was added to each well. The plates were incubated at 37°C for 2 h; after that, the plates were recorded by measuring absorbance at 450 nm with the reference wavelength of 630 nm using an EnVision Multilabel Reader (PerkinElmer). The IC50 values were calculated using GraphPad Prism 6.0 software and determined by the concentration causing a half-maximal percent activity. All assays were conducted with three parallel samples and three repetitions.

Setting [1] is: HeLa, 48 h, HeLa cells, CCK8, 48 h, mean ± SD, n = 3, read-out: IC50 (μM) HeLa.
Setting [2] is: HELA 2000cells/well, Repeat1, read-out: Inhibition (%) Repeat1.
Where [3] appears, read: HELA 2000cells/well, Repeat2, read-out: Inhibition (%) Repeat2.
Setting [4] is: HeLa, HELA 2000cells/well, supplement DataSheet2, Repeat1, read-out: IC50 Repeat1.
The mark [5] stands for this setting: HeLa, HELA 2000cells/well, supplement DataSheet2, Repeat 2, read-out: IC50 Repeat 2.
Setting [6] is: HeLa, HELA 2000cells/well, supplement DataSheet2, mean of two repeats ± SD, read-out: IC50 mean±SD.

The molecule `COCCOc1cc2ncnc(Nc3cccc(-c4cn(Cc5ccccc5)nn4)c3)c2cc1OCCOC` [Compound 4a, [3-(1-Benzyl-1H-[1,2,3]triazol-4-yl)-phenyl]-[6,7-bis-(2-methoxy-ethoxy)-quinazolin-4-yl]-amine] had a melting point of 89 to 92 °C. In the series with HeLa cells (setting [1]), the IC50 was over 50 µM. In addition, in the series on HeLa cells (setting [2]), the inhibition at 0.25 µM turned out to be 0%, the inhibition at 0.5 µM turned out to be 8.2%, the inhibition at 1 µM amounted to 8.54% and the inhibition at 2 µM worked out at 8.54%. Further, in the series on HeLa cells (setting [2]), the inhibition at 4 µM was found to be 12.1%, the inhibition at 8 µM was found to be 12.5% and the inhibition at 16 µM came out at 16.3%. In the series on HeLa cells (setting [3]), the inhibition at 0.25 µM is 4.4%, the inhibition at 0.5 µM stood at 5.61%, the inhibition at 1 µM amounted to 6.73% and the inhibition at 2 µM is 6.73%. For the same molecule, in the series with HeLa cells (setting [3]), the inhibition at 4 µM came out at 12.1%, the inhibition at 8 µM is 13.8% and the inhibition at 16 µM is 15.5%.
Consider `COCCOc1cc2ncnc(Nc3cccc(-c4cn(Cc5ccccc5I)nn4)c3)c2cc1OCCOC` [Compound 4b, [6,7-Bis-(2-methoxy-ethoxy)-quinazolin-4-yl]-{3-[1-(2-iodo-benzyl)-1H-[1,2,3]triazol-4-yl]-phenyl}-amine], for which the melting point fell in the range of 93 to 96 °C. In addition, the IC50 with HeLa cells (setting [1]) amounted to 11.5 ± 1.69 µM. In addition, the concentration for half-maximal inhibition (IC50) in the series with HeLa cells (setting [4]) is 9.72 µM. For the same molecule, in the series with HeLa cells (setting [5]), the IC50 came out at 13.1 µM. Also, in the series with HeLa cells (setting [6]), the 50% inhibitory concentration (IC50) was 11.5 ± 1.69 µM. Moreover, in the series with HeLa cells (setting [2]), the inhibition at 0.25 µM was found to be 8.56%, the inhibition at 0.5 µM amounted to 12.5%, the inhibition at 1 µM amounted to 13.3% and the inhibition at 2 µM amounted to 17.6%. In addition, in the series with HeLa cells (setting [2]), the inhibition at 4 µM was 37.8%, the inhibition at 8 µM was 52% and the inhibition at 16 µM is 54.8%. For the same molecule, in the series on HeLa cells (setting [3]), the inhibition at 0.25 µM stood at 0%, the inhibition at 0.5 µM turned out to be 0%, the inhibition at 1 µM came to 3.42% and the inhibition at 2 µM is 7.96%. Further, in the series with HeLa cells (setting [3]), the inhibition at 4 µM amounted to 28.2%, the inhibition at 8 µM came out at 40.8% and the inhibition at 16 µM worked out at 51.1%.
Take `COCCOc1cc2ncnc(Nc3cccc(-c4cn(Cc5ccccc5Br)nn4)c3)c2cc1OCCOC` [Compound 4c, [6,7-Bis-(2-methoxy-ethoxy)-quinazolin-4-yl]-{3-[1-(2-bromo-benzyl)-1H-[1,2,3]triazol-4-yl]-phenyl}-amine]: the melting point is 94 to 97 °C. In addition, the concentration for half-maximal inhibition (IC50) in the series with HeLa cells (setting [1]) amounted to 21.3 ± 7.79 µM. Besides, the IC50 in the series with HeLa cells (setting [4]) amounted to 14.8 µM. In the series on HeLa cells (setting [5]), the IC50 is 30.4 µM. In the series with HeLa cells (setting [2]), the inhibition at 0.25 µM worked out at 2.33%, the inhibition at 0.5 µM was 4.15%, the inhibition at 1 µM was 4.75% and the inhibition at 2 µM worked out at 15.8%. Moreover, in the series with HeLa cells (setting [2]), the inhibition at 4 µM was found to be 35.6%, the inhibition at 8 µM worked out at 42.4% and the inhibition at 16 µM was determined as 45%. In the series on HeLa cells (setting [3]), the inhibition at 0.25 µM is 0%, the inhibition at 0.5 µM was 1.82%, the inhibition at 1 µM came to 2.33% and the inhibition at 2 µM stood at 9.94%. Besides, in the series with HeLa cells (setting [3]), the inhibition at 4 µM was determined as 21.3%, the inhibition at 8 µM was 29.7% and the inhibition at 16 µM worked out at 34.1%.
With `COCCOc1cc2ncnc(Nc3cccc(-c4cn(-c5cccc(OC)c5)nn4)c3)c2cc1OCCOC` [Compound 4e, [6,7-Bis-(2-methoxy-ethoxy)-quinazolin-4-yl]-{3-[1-(3-methoxy-phenyl)-1H-[1,2,3]triazol-4-yl]-phenyl}-amine], the IC50 in the series with HeLa cells (setting [1]) was over 50 µM. In the series with HeLa cells (setting [2]), the inhibition at 0.25 µM is 0.801%, the inhibition at 0.5 µM was determined as 4.97%, the inhibition at 1 µM amounted to 7.13% and the inhibition at 2 µM worked out at 14.1%. Besides, in the series on HeLa cells (setting [2]), the inhibition at 4 µM was 15%, the inhibition at 8 µM came to 16.5% and the inhibition at 16 µM came to 18.2%. For the same molecule, in the series with HeLa cells (setting [3]), the inhibition at 0.25 µM came to 0%, the inhibition at 0.5 µM worked out at 2.08%, the inhibition at 1 µM was 3.04% and the inhibition at 2 µM amounted to 5.45%. Besides, in the series with HeLa cells (setting [3]), the inhibition at 4 µM was 13.5%, the inhibition at 8 µM was determined as 15.1% and the inhibition at 16 µM was determined as 15.9%.
Regarding `COCCOc1cc2ncnc(Nc3cccc(-c4cn(-c5ccccc5F)nn4)c3)c2cc1OCCOC` [Compound 4f, [6,7-Bis-(2-methoxy-ethoxy)-quinazolin-4-yl]-{3-[1-(2-fluoro-phenyl)-1H-[1,2,3]triazol-4-yl]-phenyl}-amine], the melting point fell in the range of 83 to 86 °C. The 50% inhibitory concentration (IC50) in the series on HeLa cells (setting [1]) was 30.7 ± 1.83 µM. Also, in the series on HeLa cells (setting [4]), the IC50 amounted to 32.4 µM. The concentration for half-maximal inhibition (IC50) with HeLa cells (setting [5]) amounted to 28.7 µM. Further, the IC50 in the series with HeLa cells (setting [6]) was 30.7 ± 1.83 µM. For the same molecule, in the series on HeLa cells (setting [2]), the inhibition at 0.25 µM was 2.17%, the inhibition at 0.5 µM turned out to be 2.51%, the inhibition at 1 µM amounted to 3.51% and the inhibition at 2 µM is 4.77%. In the series with HeLa cells (setting [2]), the inhibition at 4 µM was found to be 8.86%, the inhibition at 8 µM worked out at 29.8% and the inhibition at 16 µM is 31.1%. Further, in the series with HeLa cells (setting [3]), the inhibition at 0.25 µM stood at 0%, the inhibition at 0.5 µM is 0.418%, the inhibition at 1 µM turned out to be 0.502% and the inhibition at 2 µM amounted to 2.17%. Moreover, in the series with HeLa cells (setting [3]), the inhibition at 4 µM stood at 3.18%, the inhibition at 8 µM amounted to 23.1% and the inhibition at 16 µM came to 30.4%.
The molecule `COCCOc1cc2ncnc(Nc3cccc(-c4cn(-c5ccc(F)cc5)nn4)c3)c2cc1OCCOC` [Compound 4g, [6,7-Bis-(2-methoxy-ethoxy)-quinazolin-4-yl]-{3-[1-(4-fluoro-phenyl)-1H-[1,2,3]triazol-4-yl]-phenyl}-amine] came in with a melting point of 88 to 91 °C. The IC50 with HeLa cells (setting [1]) was 9.05 ± 0.53 µM. In addition, the IC50 in the series with HeLa cells (setting [4]) came out at 8.57 µM. The concentration for half-maximal inhibition (IC50) in the series with HeLa cells (setting [5]) came to 9.64 µM. Moreover, the IC50 in the series on HeLa cells (setting [6]) was found to be 9.06 ± 0.531 µM. Moreover, in the series on HeLa cells (setting [2]), the inhibition at 0.25 µM is 0%, the inhibition at 0.5 µM came out at 0.279%, the inhibition at 1 µM was found to be 2.88% and the inhibition at 2 µM was determined as 20.6%. In the series with HeLa cells (setting [2]), the inhibition at 4 µM was found to be 37.5%, the inhibition at 8 µM was found to be 51.1% and the inhibition at 16 µM was 59.4%. Also, in the series with HeLa cells (setting [3]), the inhibition at 0.25 µM turned out to be 2.88%, the inhibition at 0.5 µM is 5.02%, the inhibition at 1 µM was 5.02% and the inhibition at 2 µM is 17.7%. In the series with HeLa cells (setting [3]), the inhibition at 4 µM was 38.5%, the inhibition at 8 µM was 50.1% and the inhibition at 16 µM came to 54.7%.
As to `COCCOc1cc2ncnc(Nc3cccc(-c4cn(-c5ccccc5Cl)nn4)c3)c2cc1OCCOC` [Compound 4h, [6,7-Bis-(2-methoxy-ethoxy)-quinazolin-4-yl]-{3-[1-(2-chloro-phenyl)-1H-[1,2,3]triazol-4-yl]-phenyl}-amine], the melting point fell in the range of 131 to 134 °C. In addition, in the series on HeLa cells (setting [1]), the IC50 was 8.85 ± 0.56 µM. Besides, the half-maximal inhibitory concentration (IC50) in the series with HeLa cells (setting [4]) is 8.32 µM. For the same molecule, the half-inhibitory concentration (IC50) with HeLa cells (setting [5]) came to 9.44 µM. The IC50 in the series with HeLa cells (setting [6]) was determined as 8.86 ± 0.559 µM. Besides, in the series with HeLa cells (setting [2]), the inhibition at 0.25 µM was found to be 0%, the inhibition at 0.5 µM was determined as 7.08%, the inhibition at 1 µM was determined as 7.26% and the inhibition at 2 µM came to 13.4%. In addition, in the series with HeLa cells (setting [2]), the inhibition at 4 µM was 31.3%, the inhibition at 8 µM came to 54.3% and the inhibition at 16 µM worked out at 63.2%. Moreover, in the series on HeLa cells (setting [3]), the inhibition at 0.25 µM is 1.75%, the inhibition at 0.5 µM was found to be 3.15%, the inhibition at 1 µM came out at 6.12% and the inhibition at 2 µM was found to be 11.2%. In addition, in the series with HeLa cells (setting [3]), the inhibition at 4 µM amounted to 29.2%, the inhibition at 8 µM amounted to 51.4% and the inhibition at 16 µM came to 59.4%.
Consider `C#Cc1cccc(Nc2ncnc3cc(OCCOC)c(OCCOC)cc23)c1` [Erlotinib, erlotinib], for which, in the series with HeLa cells (HeLa cells, CCK8, 48 h, mean ± SD, n = 3, read-out: IC50 (μM) HeLa), the IC50 was 39.5 ± 3.34 µM.
